Measured values from ChEMBL document CHEMBL1201862, “PubChem BioAssay data set” (2004).
Calls of active or inactive are those of the source.

Columns and labels:
[1] = molecular target: T1, Heat shock factor protein 1 (Mus musculus, UniProt P38532); experiment: decrease of HSF1-responsive luciferase luminescence – cell-based, NIH3T3, dose retest, confirmation (AID 2382); format: functional;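 also: NIH3T3 fibroblasts with HSF1-driven luciferase reporter stressed by proteasome inhibitor MG132; luminescence from HSF1-driven luciferase expression after 8 hours of MG132 stress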
T1 sequence (P38532 whole entry): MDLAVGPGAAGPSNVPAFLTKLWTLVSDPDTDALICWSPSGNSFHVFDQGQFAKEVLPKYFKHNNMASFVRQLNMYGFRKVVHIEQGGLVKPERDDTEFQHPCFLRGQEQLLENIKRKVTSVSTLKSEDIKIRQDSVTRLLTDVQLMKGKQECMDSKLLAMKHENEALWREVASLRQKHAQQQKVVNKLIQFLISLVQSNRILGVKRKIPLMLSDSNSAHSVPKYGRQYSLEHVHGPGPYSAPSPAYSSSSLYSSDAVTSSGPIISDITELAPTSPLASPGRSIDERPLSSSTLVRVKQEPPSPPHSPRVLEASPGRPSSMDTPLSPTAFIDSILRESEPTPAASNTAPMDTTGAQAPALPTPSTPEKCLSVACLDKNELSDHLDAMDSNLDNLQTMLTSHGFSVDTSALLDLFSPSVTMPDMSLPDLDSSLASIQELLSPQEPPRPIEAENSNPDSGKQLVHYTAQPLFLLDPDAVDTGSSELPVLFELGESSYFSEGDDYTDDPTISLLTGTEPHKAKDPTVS

[2] = tested on: Streptococcus sp. 'group A'; experiment: Streptococcus pyogenes SK(-)GAS viability under kanamycin – luminescence, BacTiterGlo, confirmation, counter-screen for streptokinase expression inhibitor project, dose response (AID 1900); format: functional, organism-based
Streptokinase A = molecular target: T2, Streptokinase A (Streptococcus pyogenes serotype M1, UniProt P10520); experiment: viability-normalized secreted streptokinase activity reduction – plasminogen activation absorbance, OD405, dose response (AID 1914); format: functional, Streptococcus pyogenes M1 GAS;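 also: secreted streptokinase activity via plasminogen activation per viability signal from cell pellet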
T2 sequence (P10520 whole entry): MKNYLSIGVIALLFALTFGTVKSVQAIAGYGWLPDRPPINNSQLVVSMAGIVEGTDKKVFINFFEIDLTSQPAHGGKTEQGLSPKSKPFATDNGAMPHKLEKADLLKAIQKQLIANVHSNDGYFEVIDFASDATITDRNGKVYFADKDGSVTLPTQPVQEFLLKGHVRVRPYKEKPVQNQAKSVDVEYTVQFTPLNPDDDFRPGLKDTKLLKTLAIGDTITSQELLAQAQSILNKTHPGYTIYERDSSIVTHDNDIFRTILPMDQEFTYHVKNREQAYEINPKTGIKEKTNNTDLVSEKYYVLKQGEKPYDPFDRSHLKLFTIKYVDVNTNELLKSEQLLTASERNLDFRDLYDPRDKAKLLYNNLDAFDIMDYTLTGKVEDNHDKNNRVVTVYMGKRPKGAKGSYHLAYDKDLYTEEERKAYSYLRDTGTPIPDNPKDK

[3] = Trypanosoma cruzi growth suppression in host cells – NIH3T3 host cells, beta-gal luminescence, confirmation (AID 2044); format: functional, cell-based;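 also: intracellular parasites grown in NIH/3T3 mouse fibroblasts as host cells; luminescent beta-galactosidase reporter signal from transgenic T. cruzi replicating inside host cells; inhibitors lower the luminescence signal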
[4] = NIH3T3 cell viability loss – ATP luminescence, mouse fibroblasts, counter-screen, dose response (AID 2010); format: functional, cell-based;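 also: cells exposed to compound for about 90 hours before reading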
Streptococcus = experiment: GAS UMAA2166 growth inhibition – luminescence, BacTiterGlo, counter-screen for streptokinase expression inhibitor project, dose response (AID 1915); format: functional, organism-based;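 also: potency for reduction of bacterial viability or growth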
Cytochrome P450 2C19 = Cytochrome P450 2C19 (Homo sapiens, UniProt P33261); experiment: Cytochrome panel assay with activity outcomes. Panel member name: p450-cyp2c19 Compounds with AC50 equal or less than 10 uM are considered active; format: functional; settings: read-out: AC50
Cytochrome P450 2D6 = Cytochrome P450 2D6 (Homo sapiens, UniProt P10635);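 also: CYP2D6 member of a cytochrome P450 panel assay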
Cytochrome P450 3A4 = Cytochrome P450 3A4 (Homo sapiens, UniProt P08684);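 also: CYP3A4 tested as one member of a cytochrome P450 panel screen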
Cytochrome P450 2C9 = Cytochrome P450 2C9 (Homo sapiens, UniProt P11712)
[5] = molecular target: T3, Replicative DNA helicase DnaB (Mycobacterium tuberculosis, UniProt P9WMR3); experiment: DnaB intein splicing inhibitors, dose response, biochemical, cell-free fluorescence (AID 449749); format: functional
T3 sequence (P9WMR3 whole entry): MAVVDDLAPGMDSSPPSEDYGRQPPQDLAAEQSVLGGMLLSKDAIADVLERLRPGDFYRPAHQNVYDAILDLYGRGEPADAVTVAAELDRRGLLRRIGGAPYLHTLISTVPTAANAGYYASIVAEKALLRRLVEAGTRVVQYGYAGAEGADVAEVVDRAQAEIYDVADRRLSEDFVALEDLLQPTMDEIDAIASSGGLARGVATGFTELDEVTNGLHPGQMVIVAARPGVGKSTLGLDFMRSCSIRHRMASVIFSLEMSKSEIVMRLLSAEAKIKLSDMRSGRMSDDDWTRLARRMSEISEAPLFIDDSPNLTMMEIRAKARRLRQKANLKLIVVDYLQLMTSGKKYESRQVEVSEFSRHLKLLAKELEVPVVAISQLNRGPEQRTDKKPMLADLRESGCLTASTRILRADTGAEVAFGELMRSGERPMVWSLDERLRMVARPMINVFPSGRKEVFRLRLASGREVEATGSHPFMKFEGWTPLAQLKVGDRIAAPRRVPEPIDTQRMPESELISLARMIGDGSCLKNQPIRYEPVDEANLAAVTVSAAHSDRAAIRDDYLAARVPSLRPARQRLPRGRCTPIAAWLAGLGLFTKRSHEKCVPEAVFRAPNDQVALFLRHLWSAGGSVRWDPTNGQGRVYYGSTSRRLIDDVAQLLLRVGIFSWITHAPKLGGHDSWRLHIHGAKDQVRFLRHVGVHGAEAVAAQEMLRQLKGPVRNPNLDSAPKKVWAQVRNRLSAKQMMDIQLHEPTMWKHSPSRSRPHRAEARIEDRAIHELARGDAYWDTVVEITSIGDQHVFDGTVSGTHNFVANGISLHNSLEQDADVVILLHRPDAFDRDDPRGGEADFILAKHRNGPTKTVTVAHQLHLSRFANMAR

Protein RecA = molecular target: T4, Protein RecA (Mycobacterium tuberculosis, UniProt P9WHJ3); experiment: Fluorescence Cell-Free Homogeneous Dose Retest to Identify Inhibitors of RecA-Intein Splicing Activity. [Related pubchem assays (depositor defined):AID2097, AID2223, AID489010, AID492950]; format: functional
T4 sequence (P9WHJ3 whole entry): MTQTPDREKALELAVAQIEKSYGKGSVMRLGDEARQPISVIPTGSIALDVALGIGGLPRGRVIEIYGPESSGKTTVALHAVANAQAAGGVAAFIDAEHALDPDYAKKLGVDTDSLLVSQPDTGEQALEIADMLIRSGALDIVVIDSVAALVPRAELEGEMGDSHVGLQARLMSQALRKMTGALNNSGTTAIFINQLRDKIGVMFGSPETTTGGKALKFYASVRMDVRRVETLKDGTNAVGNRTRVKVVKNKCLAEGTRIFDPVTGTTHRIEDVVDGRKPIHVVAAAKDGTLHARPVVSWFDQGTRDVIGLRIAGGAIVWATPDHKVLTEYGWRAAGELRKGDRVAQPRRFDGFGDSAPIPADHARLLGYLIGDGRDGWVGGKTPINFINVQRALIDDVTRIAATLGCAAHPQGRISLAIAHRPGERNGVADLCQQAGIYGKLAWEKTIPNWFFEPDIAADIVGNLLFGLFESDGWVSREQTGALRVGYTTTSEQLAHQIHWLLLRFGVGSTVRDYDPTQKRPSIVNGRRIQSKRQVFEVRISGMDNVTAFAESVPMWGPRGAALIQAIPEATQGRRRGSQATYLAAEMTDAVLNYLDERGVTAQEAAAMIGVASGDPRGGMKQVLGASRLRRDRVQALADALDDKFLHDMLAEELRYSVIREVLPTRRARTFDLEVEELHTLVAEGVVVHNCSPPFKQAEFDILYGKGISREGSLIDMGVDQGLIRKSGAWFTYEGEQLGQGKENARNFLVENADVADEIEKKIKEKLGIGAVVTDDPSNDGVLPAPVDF

Cytochrome P450 1A2 = molecular target: T5, Cytochrome P450 1A2 (Homo sapiens, UniProt P05177);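 also: PubChem cytochrome P450 panel assay, CYP1A2 panel member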
T5 sequence (P05177 whole entry): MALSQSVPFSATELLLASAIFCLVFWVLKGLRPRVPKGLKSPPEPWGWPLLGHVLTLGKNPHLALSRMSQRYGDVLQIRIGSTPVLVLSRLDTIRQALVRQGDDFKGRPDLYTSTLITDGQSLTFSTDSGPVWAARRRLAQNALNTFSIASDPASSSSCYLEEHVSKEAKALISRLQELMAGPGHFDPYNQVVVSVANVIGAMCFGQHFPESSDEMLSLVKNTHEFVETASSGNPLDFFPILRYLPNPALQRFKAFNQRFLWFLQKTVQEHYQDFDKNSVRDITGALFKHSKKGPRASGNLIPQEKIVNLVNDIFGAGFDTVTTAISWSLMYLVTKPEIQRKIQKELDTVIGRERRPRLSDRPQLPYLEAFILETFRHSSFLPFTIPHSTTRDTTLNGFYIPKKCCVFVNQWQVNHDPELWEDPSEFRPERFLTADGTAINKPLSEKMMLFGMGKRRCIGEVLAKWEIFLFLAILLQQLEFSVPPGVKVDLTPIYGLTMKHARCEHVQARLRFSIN

[6] = Luminescence Cell-Based Dose Retest to Confirm Inhibitors of Cancer Stem Cells. [Related pubchem assays (depositor defined):AID2717, AID2721]; format: functional, Homo sapiens; settings: Homo sapiens

Sequence of Cytochrome P450 2C9 (P11712 whole entry): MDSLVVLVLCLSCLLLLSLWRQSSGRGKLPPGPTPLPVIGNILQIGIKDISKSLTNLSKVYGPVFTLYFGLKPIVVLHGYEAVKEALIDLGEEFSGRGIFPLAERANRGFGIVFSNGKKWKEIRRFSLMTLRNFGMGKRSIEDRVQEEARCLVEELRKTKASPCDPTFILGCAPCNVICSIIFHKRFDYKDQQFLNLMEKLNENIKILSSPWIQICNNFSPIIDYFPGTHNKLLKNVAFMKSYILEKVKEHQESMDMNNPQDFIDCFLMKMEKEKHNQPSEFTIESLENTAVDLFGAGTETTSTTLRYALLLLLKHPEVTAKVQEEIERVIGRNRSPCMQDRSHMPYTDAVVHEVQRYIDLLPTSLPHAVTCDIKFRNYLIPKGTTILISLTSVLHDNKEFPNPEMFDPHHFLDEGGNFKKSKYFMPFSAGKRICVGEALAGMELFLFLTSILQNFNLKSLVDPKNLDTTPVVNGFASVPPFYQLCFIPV
Sequence of Cytochrome P450 2D6 (P10635 whole entry): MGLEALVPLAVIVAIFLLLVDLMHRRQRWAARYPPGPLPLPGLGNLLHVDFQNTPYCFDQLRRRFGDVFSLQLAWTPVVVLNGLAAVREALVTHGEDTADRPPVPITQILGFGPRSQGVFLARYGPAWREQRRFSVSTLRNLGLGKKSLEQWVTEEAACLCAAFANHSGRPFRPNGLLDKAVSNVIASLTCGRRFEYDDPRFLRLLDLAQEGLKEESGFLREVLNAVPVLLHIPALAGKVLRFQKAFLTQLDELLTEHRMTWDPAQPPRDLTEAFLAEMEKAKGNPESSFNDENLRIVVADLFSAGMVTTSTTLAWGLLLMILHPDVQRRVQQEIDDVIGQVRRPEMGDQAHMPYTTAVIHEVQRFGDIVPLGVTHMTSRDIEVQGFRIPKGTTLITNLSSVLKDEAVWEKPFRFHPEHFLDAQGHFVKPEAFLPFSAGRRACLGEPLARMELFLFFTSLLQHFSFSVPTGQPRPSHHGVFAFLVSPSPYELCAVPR
Sequence of Cytochrome P450 2C19 (P33261 whole entry): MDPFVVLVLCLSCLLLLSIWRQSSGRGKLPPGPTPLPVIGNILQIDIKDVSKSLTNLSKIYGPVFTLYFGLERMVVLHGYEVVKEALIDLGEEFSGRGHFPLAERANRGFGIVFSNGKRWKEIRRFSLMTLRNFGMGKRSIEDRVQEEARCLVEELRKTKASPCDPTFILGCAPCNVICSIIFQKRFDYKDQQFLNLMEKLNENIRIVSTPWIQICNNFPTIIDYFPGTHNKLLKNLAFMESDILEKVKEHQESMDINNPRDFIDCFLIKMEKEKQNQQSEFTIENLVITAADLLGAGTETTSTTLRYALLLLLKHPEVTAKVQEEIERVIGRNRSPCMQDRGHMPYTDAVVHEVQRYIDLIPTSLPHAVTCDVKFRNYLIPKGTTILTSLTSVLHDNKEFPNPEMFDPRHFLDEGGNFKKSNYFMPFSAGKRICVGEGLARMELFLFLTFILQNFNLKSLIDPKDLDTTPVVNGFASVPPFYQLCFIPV
Sequence of Cytochrome P450 3A4 (P08684 whole entry): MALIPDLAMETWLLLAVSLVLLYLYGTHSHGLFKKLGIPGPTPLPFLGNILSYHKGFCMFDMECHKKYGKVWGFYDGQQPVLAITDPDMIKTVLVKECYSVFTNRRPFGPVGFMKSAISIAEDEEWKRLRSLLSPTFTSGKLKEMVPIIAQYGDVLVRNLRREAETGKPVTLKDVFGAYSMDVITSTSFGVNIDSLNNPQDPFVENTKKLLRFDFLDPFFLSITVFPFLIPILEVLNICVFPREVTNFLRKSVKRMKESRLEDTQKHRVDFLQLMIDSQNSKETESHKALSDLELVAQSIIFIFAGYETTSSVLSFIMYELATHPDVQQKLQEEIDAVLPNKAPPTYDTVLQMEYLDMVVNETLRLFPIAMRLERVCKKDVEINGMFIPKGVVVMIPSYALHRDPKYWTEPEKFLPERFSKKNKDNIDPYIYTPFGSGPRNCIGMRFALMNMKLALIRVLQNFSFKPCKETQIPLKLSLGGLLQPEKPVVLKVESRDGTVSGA

Structure (SMILES): CCN(CC)CCNCc1cc(Cl)ccc1OCc1ccccc1F
- EC50 [1]: > 195 µM (not active)

Structure (SMILES): Cc1ccc(S(=O)(=O)N(C)CC(=O)N2CCc3ccccc32)cc1
- EC50 [1]: > 195 µM (not active)

Structure (SMILES): O=C(CSc1ccc(-c2ccccn2)nn1)NC1CCCCC1
- EC50 [1]: > 195 µM (not active)

Structure (SMILES): Cc1ccnc(NC(c2ccsc2)c2ccc3ccc(C)nc3c2O)c1 (centres undefined)
- EC50 [2]: 10.6 µM (active)
- EC50 [1]: > 195 µM (not active)
- EC50 (Streptokinase A): > 150 µM (not active)
- EC50 [3]: 1.64 µM (active)
- EC50 [4]: 9.38 µM (active)
- EC50 (Streptococcus): 20.5 µM (active)

Structure (SMILES): Cc1cc(C2(c3cc(C)c(NC(=O)CN4CCOCC4)c(C)c3)CCCCC2)cc(C)c1NC(=O)CN1CCOCC1
- EC50 [1]: > 195 µM (not active)

Structure (SMILES): CCS(=O)(=O)N1CCN(C(=O)c2ccccc2)CC1
- EC50 [1]: > 195 µM (not active)

Structure (SMILES): COc1cccc(-c2c(NC(C)=O)n(C)c3ccccc3c2=O)c1
- EC50 [1]: > 195 µM (not active)

Structure (SMILES): COc1ccc(-c2cc(C(=O)Nc3ccc(S(N)(=O)=O)cc3)c3ccccc3n2)cc1OC
- EC50 [1]: > 195 µM (not active)

Structure (SMILES): c1cnc2ccc(C(c3nnnn3C3CCCC3)N3CCN4CCCC4C3)cc2c1 (centres undefined)
- AC50 (Cytochrome P450 2C19): 25.1 µM (inconclusive)
- AC50 (Cytochrome P450 2D6): 22.4 µM (inconclusive)
- AC50 (Cytochrome P450 3A4): 6.31 µM (inconclusive)
- AC50 (Cytochrome P450 2C9): 14.1 µM (inconclusive)

Structure (SMILES): COc1ccccc1CCC(=O)OCC(=O)Nc1cccc(S(=O)(=O)N2CCOCC2)c1
- EC50 [1]: > 195 µM (not active)

Structure (SMILES): Cc1cc(O)nc(CCl)n1
- EC50 [1]: > 195 µM (not active)

Structure (SMILES): COc1ccc(CCNC(=O)Cc2nn(C)c(=O)c3ccccc23)cc1OC
- EC50 [1]: > 195 µM (not active)

Structure (SMILES): CC(C)=CCN1CCN(Cc2cc(F)ccc2-n2nc(C)cc2C)CC1CCO (centres undefined)
- EC50 [1]: > 195 µM (not active)

Structure (SMILES): CN1CCc2c(sc3c2c(=O)n(-c2ccc(Cl)cc2)c2nncn32)C1
- EC50 [1]: > 195 µM (not active)

Structure (SMILES): CCOC(=O)c1c(NC(=O)COC(=O)c2nccnc2N)sc(C(=O)N(C)C)c1C
- EC50 [1]: > 195 µM (not active)

Structure (SMILES): CCOc1ccc(NCc2nnc(SCc3ccccc3Cl)n2-c2ccccc2)cc1
- EC50 [1]: > 195 µM (not active)
- AC50 (Cytochrome P450 2D6): 25.1 µM (inconclusive)

Structure (SMILES): CCOc1nnc(C)c2c(C)n(-c3ccc(Cl)cc3)nc12
- AC50 (Cytochrome P450 2C19): 31.6 µM (inconclusive)
- AC50 (Cytochrome P450 2D6): 25.1 µM (inconclusive)
- AC50 (Cytochrome P450 2C9): 25.1 µM (inconclusive)

Structure (SMILES): Cc1cccc(OCC(=O)Nc2cccc(C(=O)NCC(C)C)c2)c1
- EC50 [1]: > 195 µM (not active)

Structure (SMILES): CCC1CCCCN1CCCNC(=O)CSc1nc2nc(C)c(Cc3ccc(C)cc3)c(C)n2n1 (centres undefined)
- EC50 [1]: > 195 µM (not active)

Structure (SMILES): Cc1cc(C(=O)CSc2ccc(F)cc2)cc(C)c1OC(=S)N(C)C
- EC50 [1]: < 0.16 µM (active)

Structure (SMILES): CCC(C)[C@H](NC(=O)NC1CCN(Cc2ccccc2)CC1)C(=O)OC (some centres undefined)
- AC50 [5]: 39.9 µM (active)
- EC50 (Protein RecA): 2.96 µM (active)
- AC50 (Cytochrome P450 2D6): 28.2 µM (inconclusive)
- AC50 (Cytochrome P450 2C9): 2.24 µM (inconclusive)

Structure (SMILES): Cc1c(/N=C/c2ccco2)n(Cc2ccccc2)c2ccccc12
- AC50 (Cytochrome P450 2C19): 2.82 µM (inconclusive)
- AC50 (Cytochrome P450 2D6): 4.47 µM (inconclusive)

Structure (SMILES): COc1nc(N)c(C#N)c(-c2ccc(N(C)CCC#N)cc2)c1C#N
- EC50 [1]: 15.6 µM (active)

Structure (SMILES): CCOC(=O)c1ccc(N/C=C/C(=O)c2ccc(OC)cc2)cc1
- EC50 [1]: > 195 µM (not active)
- AC50 (Cytochrome P450 2C19): 2.82 µM (inconclusive)
- AC50 (Cytochrome P450 1A2): 22.4 µM (inconclusive)
- AC50 (Cytochrome P450 3A4): 6.31 µM (inconclusive)

Structure (SMILES): CC(C)(C)C1CCc2c(sc(NC(=O)CSc3nc[nH]n3)c2C#N)C1 (centres undefined)
- EC50 [1]: > 195 µM (not active)
- AC50 [6]: 4.46 µM (active)
